Measurements reported in patent US12398097B2, “WDR5-MYC inhibitors” (Vanderbilt University, priority 2019, dated 2025).

Biological target: WDR5 (Homo sapiens, UniProt P61964)
Experiment: Competition-based fluorescence polarization anisotropy assay
Settings: binding to WDR5; displacement of FITC-labeled small molecule probe (analogous to Example J2 or HCH-25) or peptide probe FITC-AHx-SEEEIDVVSV; pH 6.0; Ki converted from IC50
Method: Compounds of the present invention were assessed for their ability to bind to WDr5 using a competition-based fluorescence polarization anisotropy assay, similar to the method previously described. […] Fluorescence polarization measurements were performed in 384-well plates (Greiner Bio One) using a Cytation 3 plate reader (BioTek). Fluorescein isothiocyanate (FITC)-labeled peptide probe ([…]) was purchased from GenScript USA Inc and used without further purification. […] The assay buffer contained 200 mM phosphate, 300 mM NaCl, and 0.5 mM TCEP and 0.1% Chaps at pH 6.0. […] This was converted into a binding dissociation constant (Ki value) according to the formula: […] Data shown in the table below represents a K; determined from this method for each Example, using either a fluorescently labeled small molecule probe analogous to Example J2 or Example HCH-25, or the peptide probe described above, in the assay.

| SMILES | Ki |
| --- | --- |
| O=C(O)c1cc(C2CC2)cc(NS(=O)(=O)c2cc(Br)ccc2O)c1F [Example J112, 3-((5-Bromo-2-hydroxyphenyl)sulfonamido)-5-cyclopropyl-2-fluorobenzoic acid] | 780 nM |
| O=C(O)c1cc(C2CC2)cc(NS(=O)(=O)c2cc(Br)cc3cccnc23)c1F [Example J113, 3-((6-Bromoquinoline)-8-sulfonamido)-5-cyclopropyl-2-fluorobenzoic acid] | 1710 nM |
| CNC(=O)c1cc(NS(=O)(=O)c2cc(Br)ccc2O)cc(C2CC2)c1F [Example J135, 5-((5-Bromo-2-hydroxyphenyl)sulfonamido)-3-cyclopropyl-2-fluoro-N-methylbenzamide] | 690 nM |
| N#CC1(c2ccc(O)c(NS(=O)(=O)c3cc(Br)ccc3O)c2)CC1 [JDM-10-107, 5-Bromo-N-(5-(1-cyanocyclopropyl)-2-hydroxyphenyl)-2-hydroxybenzenesulfonamide] | 850 nM |
| COC[C@H]1CCCN1C(=O)c1cc(Cl)cc(NS(=O)(=O)c2cc(Br)ccc2O)c1O [Example J28, (R)-5-Bromo-N-(5-chloro-2-hydroxy-3-(2-(methoxymethyl)pyrrolidine-1-carbonyl)phenyl)-2-hydroxybenzenesulfonamide] | 8290 nM |
| COc1ccc(Br)cc1S(=O)(=O)Nc1cc(OC(F)(F)F)cc(C(=O)NCC2CCCO2)c1O (centres unmarked) [Example J179, 3-((5-Bromo-2-methoxyphenyl)sulfonamido)-2-hydroxy-N-((tetrahydrofuran-2-yl)methyl)-5-(trifluoromethoxy)benzamide] | 740 nM |
| N#CC1(c2cc(NS(=O)(=O)c3cc(Br)ccc3O)c(O)c(C(=O)Nc3nc[nH]n3)c2)CCC1 [Example J227, 3-((5-Bromo-2-hydroxyphenyl)sulfonamido)-5-(1-cyanocyclobutyl)-2-hydroxy-N-(1H-1,2,4-triazol-3-yl)benzamide] | 50 nM |
| COc1ccc(Br)cc1S(=O)(=O)Nc1cc(Cl)cc(C(=O)N(C)C)c1O [Example J50, 3-((5-Bromo-2-methoxyphenyl)sulfonamido)-5-chloro-2-hydroxy-N,N-dimethylbenzamide] | 74200 nM |
| COc1ccc(Br)cc1S(=O)(=O)Nc1cc(C2(C#N)CCC2)cc(C(=O)O)c1O [Example J205, 3-((5-Bromo-2-methoxyphenyl)sulfonamido)-5-(1-cyanocyclobutyl)-2-hydroxybenzoic acid] | 50 nM |
| CS(=O)(=O)c1cc(C2CC2)cc(NS(=O)(=O)c2cc(Br)cc(Cl)c2O)c1O [Example S25-2, 5-Bromo-3-chloro-N-(5-cyclopropyl-2-hydroxy-3-(methylsulfonyl)phenyl)-2-hydroxybenzenesulfonamide] | 100 nM |
| CNC(=O)c1cc(C2CC2)cc(NS(=O)(=O)c2cc(Br)cc(Cl)c2O)c1O [Example J95, 3-((5-Bromo-3-chloro-2-hydroxyphenyl)sulfonamido)-5-cyclopropyl-2-hydroxy-N-methylbenzamide] | 390 nM |
| N#CC1(c2cc(NS(=O)(=O)c3cc(Br)ccc3O)c(O)c(C(=O)O)c2)CCC1 [Example J203, 3-((5-Bromo-2-hydroxyphenyl)sulfonamido)-5-(1-cyanocyclobutyl)-2-hydroxybenzoic acid] | 40 nM |
| Cc1sccc1-c1cc(NS(=O)(=O)c2cc(Br)ccc2O)c(O)c(C(=O)O)c1 [Example J198, 3-((5-Bromo-2-hydroxyphenyl)sulfonamido)-2-hydroxy-5-(2-methylthiophen-3-yl)benzoic acid] | 1100 nM |
| N#CC1(c2cc(NS(=O)(=O)c3cc(Br)ccc3O)c(O)c(C(=O)O)c2)CCCCC1 [Example J231, 3-((5-Bromo-2-hydroxyphenyl)sulfonamido)-5-(1-cyanocyclohexyl)-2-hydroxybenzoic acid] | 20 nM |
| O=S(=O)(Nc1cc(C2(C(F)(F)F)CC2)ccc1O)c1cc(Br)ccc1O [JDM-09-131, 5-Bromo-2-hydroxy-N-(2-hydroxy-5-(1-(trifluoromethyl)cyclopropyl)phenyl)benzenesulfonamide] | 550 nM |
| COc1cc(Cl)c(Br)cc1S(=O)(=O)Nc1cc(C2CC2)cc(C(N)=O)c1O [Example J105, 3-((5-Bromo-4-chloro-2-methoxyphenyl)sulfonamido)-5-cyclopropyl-2-hydroxybenzamide] | 13000 nM |
| O=C(O)c1cc(C2CC2)cc(NS(=O)(=O)c2cc(Br)ccc2NC2CC2)c1O [Example J73, 3-((5-Bromo-2-(cyclopropylamino)phenyl)sulfonamido)-5-cyclopropyl-2-hydroxybenzoic acid] | 5980 nM |
| COC1CN(C(=O)c2cc(C3(C#N)CCC3)cc(NS(=O)(=O)c3cc(Br)ccc3O)c2O)C1 [Example J223, 5-Bromo-N-(5-(1-cyanocyclobutyl)-2-hydroxy-3-(3-methoxyazetidine-1-carbonyl)phenyl)-2-hydroxybenzenesulfonamide] | 430 nM |
| CNC(=O)c1cc(OC(F)(F)F)cc(NS(=O)(=O)c2cc(Br)cc3cccnc23)c1O [Example J182, 3-((6-Bromoquinoline)-8-sulfonamido)-2-hydroxy-N-methyl-5-(trifluoromethoxy)benzamide] | 1060 nM |
| O=C(Nc1nc[nH]n1)c1cc(Cl)cc(NS(=O)(=O)c2cc(Br)ccc2O)c1 [Example J67, 3-((5-Bromo-2-hydroxyphenyl)sulfonamido)-5-chloro-N-(1H-1,2,4-triazol-3-yl)benzamide] | 360 nM |
| CNC(=O)c1cc(OC(F)(F)F)cc(NS(=O)(=O)c2cc(Br)ccc2O)c1O [Example J162, 3-((5-Bromo-2-hydroxyphenyl)sulfonamido)-2-hydroxy-N-methyl-5-(trifluoromethoxy)benzamide] | 410 nM |
| O=C(O)c1c(O)c(NS(=O)(=O)c2cc(Br)cc(F)c2O)cc(C2CC2)c1F [Example J119, 3-((5-Bromo-3-fluoro-2-hydroxyphenyl)sulfonamido)-5-cyclopropyl-6-fluoro-2-hydroxybenzoic acid] | 130 nM |
| O=C(Nc1nc[nH]n1)c1cc(NS(=O)(=O)c2cc(Br)cc(Cl)c2O)cc(C2CC2)c1F [Example J154, 5-((5-Bromo-3-chloro-2-hydroxyphenyl)sulfonamido)-3-cyclopropyl-2-fluoro-N-(1H-1,2,4-triazol-3-yl)benzamide] | 130 nM |
| COc1cc(Cl)c(Br)cc1S(=O)(=O)Nc1cc(C2(C#N)CCC2)cc(C(=O)O)c1O [Example J207, 3-((5-Bromo-4-chloro-2-methoxyphenyl)sulfonamido)-5-(1-cyanocyclobutyl)-2-hydroxybenzoic acid] | 220 nM |
| Cc1c(-c2ccccc2)cc(NS(=O)(=O)c2cc(Br)ccc2O)c(O)c1C(=O)O [Example J184, 5-((5-Bromo-2-hydroxyphenyl)sulfonamido)-4-hydroxy-2-methyl-[1,1′-biphenyl]-3-carboxylic acid] | 1620 nM |

Second part, the compound after the results:

| Ki | SMILES |
| --- | --- |
| 510 nM | CCN(CC)CCSc1cc(Cl)cc(NS(=O)(=O)c2cc(Br)cc(Cl)c2O)c1 [Example S34, 5-Bromo-3-chloro-N-(3-chloro-5-((2-(diethylamino)ethyl)thio)phenyl)-2-hydroxybenzenesulfonamide] |
| 20600 nM | CCN(CC)CCS(=O)(=O)c1cc(Cl)cc(NS(=O)(=O)c2cc(Br)ccc2OC)c1 [Example S46, 5-Bromo-N-(3-chloro-5-((2-(diethylamino)ethyl)sulfonyl)phenyl)-2-methoxybenzenesulfonamide] |
| 350 nM | CCc1cc(Br)cc(S(=O)(=O)Nc2cc(OC(F)(F)F)cc(C(=O)NCC(O)CC)c2O)c1O (centres unmarked) [HCH-40, 3-((5-Bromo-3-ethyl-2-hydroxyphenyl)sulfonamido)-2-hydroxy-N-(2-hydroxybutyl)-5-(trifluoromethoxy)benzamide] |
| 290 nM | COc1ccc(Br)cc1S(=O)(=O)Nc1cc(Cl)cc(S(C)(=O)=O)c1O [Example S49, 5-Bromo-N-(5-chloro-2-hydroxy-3-(methylsulfonyl)phenyl)-2-methoxybenzenesulfonamide] |
| 390 nM | O=[N+]([O-])c1cc(Cl)cc(NS(=O)(=O)c2cc(Br)cc(OC(F)(F)F)c2O)c1O [NE9, 5-Bromo-N-(5-chloro-2-hydroxy-3-nitrophenyl)-2-hydroxy-3-(trifluoromethoxy)benzenesulfonamide] |
| 4380 nM | CCN(CC)CCS(=O)(=O)c1cc(Cl)cc(NS(=O)(=O)c2cc(Br)ccc2O)c1 [Example S40, 5-Bromo-N-(3-chloro-5-((2-(diethylamino)ethyl)sulfonyl)phenyl)-2-hydroxybenzenesulfonamide] |
| 30 nM | CS(=O)(=O)c1cc(S(F)(F)(F)(F)F)cc(NS(=O)(=O)c2cc(Br)cc(Cl)c2O)c1O [Example S18, 5-Bromo-3-chloro-2-hydroxy-N-(2-hydroxy-3-(methylsulfonyl)-5-(pentafluoro-λ^6-sulfaneyl)phenyl)benzenesulfonamide] |
| 320 nM | NC(=O)C(NC(=O)c1cc(OC(F)(F)F)cc(NS(=O)(=O)c2cc(Br)ccc2O)c1O)c1ccccn1 (centres unmarked) [HCH-49, N-(2-Amino-2-oxo-1-(pyridin-2-yl)ethyl)-3-((5-bromo-2-hydroxyphenyl)sulfonamido)-2-hydroxy-5-(trifluoromethoxy)benzamide] |
| 250 nM | C[C@H](NC(=O)c1cc(OC(F)(F)F)cc(NS(=O)(=O)c2cc(Br)ccc2O)c1O)C(N)=O (stereo in doubt) [HCH-48, N-(1-Amino-1-oxopropan-2-yl)-3-((5-bromo-2-hydroxyphenyl)sulfonamido)-2-hydroxy-5-(trifluoromethoxy)benzamide] |
| 830 nM | CN(C)CCCS(=O)(=O)c1cc(Cl)cc(NS(=O)(=O)c2cc(Br)ccc2O)c1 [Example S52, 5-Bromo-N-(3-chloro-5-((3-(dimethylamino)propyl)sulfonyl)phenyl)-2-hydroxybenzenesulfonamide] |
